Data published in patent publication US20120276212A1, “COMPOSITION COMPRISING PLANT AND/OR FISH OILS AND NON-OXIDIZABLE FATTY ACID ENTITIES” (LIFE SCIENCE NUTRITION AS, priority 2004, published 2012).

How the values were obtained:
[1] = degradation time in vivo of ω-oxidation blocked analogue
Description: ω-oxidation is believed to be the main pathway for degradation of the fatty acid analogues as described with a block in the X position. Experiments were thus performed where R′ was changed to block ω-oxidation, by introducing a triple bond at the methyl end of the fatty acid analogue. […] This is important for the use of the fatty acid analogues in pharmaceutical preparation, as it may potentiate the effects of the β-oxidizable fatty acid analogues by further slowing down their breakdown.

[2] = test system: mitochondrial β-oxidation in the liver; assay: activity of mitochondrial β-oxidation in the liver of fatty acid analogues; conditions: in vivo
Description: Although all fatty acid anagoges with an odd positioning of the β-oxidation blocker X away from the carboxylic end block β-oxidation, the extent of their biological effect may be variable. This is due to the difference in biological degradation time of the various compounds. The inventors have done experiments to show the effect of moving X further from the carboxylic fatty acid end. In these experiments the activity (in nmol/min/mg/protein) of mitochondrial β-oxidation in the liver of fatty acid analogues was measured with sulphur in the 3, 5 and 7 positions relative to the carboxyl end. The activities were 0.81 for sulphur in the 3rd position, 0.61 for sulphur in the 5th position, 0.58 for sulphur in the 7th position, and 0.47 for palmitic acid, the non β-oxidation blocking control. […] However, as the decline is great for going from the 3rd to 5th position, but small going from the 5th to 7th position, it is reasonable to assume that this decline will continue to be less as one moves out the chain, and thus that it will be very far out indeed before no effect (compared to the control) is seen at all.

Structure (SMILES) | degradation time in vivo [1] | activity of mitochondrial β-oxidation in the liver [2]
CC#CCCCCCCCCCCCSCC [3-thia-15-heptadecyn] | substantially increased degradation time | 
CCCCCCCCCCCCCCCC(=O)O [palmitic acid] |  | 0.47 nmol/min/mg/protein
